# Assay results as given in patent US20230220313A1, “COMPOSITION AND METHOD FOR INACTIVATING A VIRUS” (RNASSIST LIMITED, priority 2020, published 2023).
# Counter-ions that a name gives are not always drawn.
# Test system: not listed separately
# Assay: Viscosity by falling ball method
# Assay type: physicochemical
# Conditions: falling ball method at 20° C.
row,Compound,viscosity
1,COCCOCCOCCOCCOC [Tetraethylene glycol dimethyl ether],3.3 cP
2,COCCOCCOCCOCCO [Tetraethylene glycol monomethyl ether],12 cP

# Test system: SARS-CoV-2
# Assay: not given
# Conditions: Welch et al (2020) J. Clin. Microbiology; cited from earlier work
row,Compound,inactivation of SARS-CoV-2
1,N=C(N)N [Guanidine HCl],not completely inactivated
2,N#CS.N=C(N)N [Guanidine thiocyanate],not completely inactivated
3,CCCCCCCCCCCCOS(=O)(=O)[O-].[Na+] [SDS],not completely inactivated
4,Triton X-100,not completely inactivated
